Measurements taken from patent US9512120B2, “Microbicidally active imidazopyridine derivatives” (Syngenta Participations AG, priority 2013, dated 2016).

Key:
[1] = tested on: Pythium ultimum; test: Pythium ultimum / liquid culture (seedling damping off); format: cell-based; details: Globisporangium ultimum, potato dextrose broth, 24° C., 2-3 days after application, read-out: control of Pythium ultimum (inhibition of growth, photometric)
Experimental: Pythium ultimum/Liquid Culture (Seedling Damping Off) Mycelia fragments and oospores of a newly grown liquid culture of the fungus were directly mixed into nutrient broth (potato dextrose broth). After placing a DMSO solution of test compound into a 96-well format microtiter plate at an application rate of 200 ppm, the nutrient broth containing the fungal mycelia/spore mixture was added. The test plates were incubated at 24° C. and the inhibition of growth was determined photometrically 2-3 days after application.

[2] = tested on: Glomerella lagenarium (Colletotrichum lagenarium); test: Glomerella lagenarium (Colletotrichum lagenarium) / liquid culture (anthracnose); format: cell-based; details: Colletotrichum orbiculare, PDB, 24° C., 3-4 days after application, read-out: control of Glomerella lagenarium (inhibition of growth, photometric)
Summary of the method: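 Cryopreserved conidia suspended in potato dextrose broth were added to compound in DMSO applied at 200 ppm. Plates incubated at 24° C; growth inhibition read photometrically 3-4 days after application.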

[3] = tested on: Monographella nivalis (Microdochium nivale); test: Monographella nivalis (Microdochium nivale) / liquid culture (foot rot cereals); format: cell-based; details: PDB, 24° C., 4-5 days after application, read-out: control of Monographella nivalis (inhibition of growth, photometric)
Summary of the method: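 Cryostored conidia in potato dextrose broth were added to test compound dispensed from DMSO at 200 ppm. Plates were kept at 24° C, and growth inhibition was read photometrically 4-5 days after application.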

[4] = tested on: Puccinia recondita f. sp. Tritici; test: Puccinia recondita f. sp. tritici / wheat / leaf disc preventative (brown rust); format: in vivo; details: foliar, wheat leaf segments cv Kanzler, inoculated 1 day after application, assessed 7-9 days after application, read-out: control of Puccinia recondita f. sp. Tritici (percent disease control compared to untreated)
Summary of the method: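 Leaf segments of wheat cv Kanzler on agar were sprayed with formulated compound at 200 ppm and inoculated with spores 1 day later. Incubation was at 19° C, 75% relative humidity and 12/12 h light/dark. Activity was scored 7-9 days after application as percent disease control versus untreated.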

[5] = tested on: Mycosphaerella graminicola (Septoria tritici); test: Mycosphaerella graminicola (Septoria tritici) / liquid culture (Septoria blotch); format: cell-based; details: Zymoseptoria tritici, PDB, 24° C., 4-5 days after application, read-out: control of Mycosphaerella graminicola (inhibition of growth, photometric)
Summary of the method: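 Cryo-stored conidia in potato dextrose broth were added to compound in DMSO at 200 ppm in microtiter plates. Plates were incubated at 24 °C and growth inhibition was measured photometrically 4–5 days after application.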

[6] = tested on: Pyrenophora teres; test: Pyrenophora teres / barley / leaf disc preventative (net blotch); format: in vivo; details: foliar, barley leaf segments cv Hasso, inoculated two days after application, assessed 5-7 days after application, read-out: control of Pyrenophora teres (disease control compared to untreated)
Summary of the method: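 Barley cv Hasso leaf segments on agar sprayed with compound at 200 ppm, inoculated with spores two days later. Kept at 20 °C, 65% RH, 12/12 h light; disease control versus untreated scored 5-7 days after application.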

[7] = tested on: Thanatephorus cucumeris (Rhizoctonia solani); test: Thanatephorus cucumeris (Rhizoctonia solani) / liquid culture (foot rot, damping-off); format: cell-based; details: PDB, 24° C., 3-4 days after application, read-out: control of Thanatephorus cucumeris (inhibition of growth, photometric)
Summary of the method: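 Mycelial fragments in potato dextrose broth exposed to test compounds at 200 ppm (from DMSO solution), incubated at 24° C. Growth inhibition read photometrically 3-4 days after application.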

[8] = tested on: Phaeosphaeria nodorum (Septoria nodorum); test: Phaeosphaeria nodorum (Septoria nodorum) / wheat / leaf disc preventative (glume blotch); format: in vivo; details: Parastagonospora nodorum, foliar, wheat leaf segments cv Kanzler, inoculated 2 days after application, assessed 5-7 days after application, read-out: control of Phaeosphaeria nodorum (percent disease control compared to untreated)
Summary of the method: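 Wheat leaf segments (cv Kanzler) on agar sprayed with compound at 200 ppm, inoculated with spores 2 days later. Incubated at 20° C., 75% relative humidity, 12/12 h light/dark; percent disease control versus untreated scored 5-7 days after application.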

[9] = tested on: Botryotinia fuckeliana (Botrytis cinerea); test: Botryotinia fuckeliana (Botrytis cinerea) / liquid culture (gray mould); format: cell-based; details: Vogels broth, 24° C., 3-4 days after application, read-out: control of Botryotinia fuckeliana (inhibition of growth, photometric)
Summary of the method: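 Botrytis cinerea conidia in Vogels broth were added to test compound applied from DMSO at 200 ppm. Incubation at 24 °C; growth inhibition read photometrically 3-4 days after application.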

[10] = tested on: Plasmopara viticola; test: Plasmopara viticola / grape / leaf disc preventative; format: in vivo; details: foliar, grape vine leaf disks, inoculated 1 day after application, assessed 6-8 days after application, read-out: control of Plasmopara viticola (percent disease control compared to untreated)
[11] = tested on: Gaeumannomyces graminis; test: Gaeumannomyces graminis / liquid culture (take-all of cereals); format: cell-based; details: PDB, 24° C., 4-5 days after application, read-out: control of Gaeumannomyces graminis (inhibition of growth, photometric)
Summary of the method: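 Mycelial fragments in potato dextrose broth were exposed to compound from DMSO at 200 ppm in microtiter plates. Incubation at 24 °C; growth inhibition read photometrically 4-5 days after application.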

[12] = tested on: Sclerotinia sclerotiorum; test: Sclerotinia sclerotiorum liquid culture (cottony rot / white mold); format: cell-based; details: PDB, 24° C., 3-4 days after application, read-out: control of Sclerotinia sclerotiorum (inhibition of growth, photometric)
Summary of the method: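 Mycelia fragments of Sclerotinia sclerotiorum in potato dextrose broth were added to compound in DMSO. Cultures incubated at 24° C; growth inhibition determined photometrically 3-4 days after application.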

[13] = tested on: Mycosphaerella arachidis (Cercospora arachidicola); test: Mycosphaerella arachidis (Cercospora arachidicola) / liquid culture (early leaf spot); format: cell-based; details: PDB, 24° C., 4-5 days after application, read-out: control of Mycosphaerella arachidis (inhibition of growth, photometric)
Summary of the method: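 Conidia suspended in potato dextrose broth and added to test compound from DMSO solution at 200 ppm. Incubated at 24 °C; growth inhibition read photometrically 4-5 days after application.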

[14] = tested on: Blumeria graminis f. Sp. Tritici (Erysiphe graminis f. Sp. Tritici); test: Blumeria graminis f. sp. tritici / wheat / leaf disc preventative (powdery mildew on wheat); format: in vivo; details: foliar, wheat leaf segments cv. Kanzler, inoculated 1 day after application, assessed 6-8 days after application, read-out: control of Blumeria graminis (percent disease control compared to untreated)
Experimental: Blumeria graminis f. Sp. Tritici (Erysiphe graminis f. Sp. Tritici)/Wheat/Leaf Disc Preventative (Powdery Mildew on Wheat):
Wheat leaf segments cv. Kanzler were placed on agar in a 24-well plate and sprayed with the formulated test compound diluted in water at an application rate of 200 ppm. The leaf disks were inoculated by shaking powdery mildew infected plants above the test plates 1 day after application. The inoculated leaf disks were incubated at 20° C. and 60% relative humidity under a light regime of 24 h darkness followed by 12 h/12 h (dark/light) in a climate chamber and the activity of a compound was assessed as percent disease control compared to untreated when an appropriate level of disease damage appears on untreated check leaf segments (6-8 days after application). The following compounds gave at least 80% control of Blumeria graminis at 200 ppm when compared to untreated control leaf disks under the same conditions, which show extensive disease development: 2, 13, 23, 50, 59, 61, 67, 75, 85, 86, 89, 90, 93, 102, 103, 107, 134, 136, 137, 138, 139, 141, 145, 151, 153, 154, 163, 173, 174

[15] = tested on: Fusarium culmorum; test: microbe, parasite or virus in culture; format: cell-based; details: read-out: control of Fusarium culmorum (inhibition of growth, photometric)

Structure (SMILES)	melting point	inhibition at 20 ppm [1]	inhibition at 20 ppm [2]	inhibition at 20 ppm [3]	pest or weed control at 200 ppm [4]	inhibition at 20 ppm [5]	pest or weed control at 200 ppm [6]	inhibition at 20 ppm [7]	pest or weed control at 200 ppm [8]	inhibition at 20 ppm [9]	pest or weed control at 200 ppm [10]	inhibition at 20 ppm [11]	inhibition at 20 ppm [12]	inhibition at 20 ppm [13]	pest or weed control at 200 ppm [14]	inhibition at 20 ppm [15]
CCCCc1nc(N)n(-c2nc3cnccc3n2C2CCCCC2)n1 [Compound 6, 5-butyl-2-(1-cyclohexylimidazo[4,5-c]pyridin-2-yl)-1,2,4-triazol-3-amine]	163 to 165 °C	≥ 80%	≥ 80%													
CCn1c(-n2ncnc2N)nc2cncc(-c3ccccc3)c21 [Compound 19, 2-(1-ethyl-7-phenylimidazo[4,5-c]pyridin-2-yl)-1,2,4-triazol-3-amine]	247 to 251 °C	≥ 80%	≥ 80%	≥ 80%	≥ 80%	≥ 80%	≥ 80%	≥ 80%	≥ 80%	≥ 80%	≥ 80%	≥ 80%				
CCn1c(-n2ncnc2N)nc2cncc(C)c21 [Compound 22, 2-(1-ethyl-7-methylimidazo[4,5-c]pyridin-2-yl)-1,2,4-triazol-3-amine]	194 to 198 °C	≥ 80%	≥ 80%	≥ 80%	≥ 80%	≥ 80%	≥ 80%	≥ 80%	≥ 80%	≥ 80%		≥ 80%	≥ 80%	≥ 80%		
CCn1c(-n2ncnc2N)nc2cncc(-c3ccc(Cl)cc3Cl)c21 [Compound 38, 2-[7-(2,4-dichlorophenyl)-1-ethylimidazo[4,5-c]pyridin-2-yl]-1,2,4-triazol-3-amine]		≥ 80%	≥ 80%	≥ 80%	≥ 80%	≥ 80%	≥ 80%	≥ 80%	≥ 80%	≥ 80%		≥ 80%	≥ 80%	≥ 80%		
CCn1c(-n2ncnc2N)nc2cncc(-c3ccc(OC)nc3)c21 [Compound 59, 2-[1-ethyl-7-(6-methoxypyridin-3-yl)imidazo[4,5-c]pyridin-2-yl]-1,2,4-triazol-3-amine]		≥ 80%	≥ 80%		≥ 80%	≥ 80%	≥ 80%	≥ 80%	≥ 80%	≥ 80%		≥ 80%			≥ 80%	
CCn1c(-n2ncnc2N)nc2cncc(-c3ccc(F)cc3F)c21 [Compound 80, 2-[7-(2,4-difluorophenyl)-1-ethylimidazo[4,5-c]pyridin-2-yl]-1,2,4-triazol-3-amine]		≥ 80%	≥ 80%	≥ 80%	≥ 80%	≥ 80%	≥ 80%	≥ 80%	≥ 80%	≥ 80%		≥ 80%	≥ 80%	≥ 80%		
CCn1c(-n2ncnc2N)nc2cncc(-c3ccccc3C#N)c21 [Compound 85, 2-[2-(5-amino-1,2,4-triazol-1-yl)-1-ethylimidazo[4,5-c]pyridin-7-yl]benzonitrile]		≥ 80%	≥ 80%		≥ 80%	≥ 80%	≥ 80%	≥ 80%		≥ 80%		≥ 80%			≥ 80%	
CCn1c(-n2ncnc2N)nc2cncc(-c3cc(Cl)ccc3Cl)c21 [Compound 88, 2-[7-(2,5-dichlorophenyl)-1-ethylimidazo[4,5-c]pyridin-2-yl]-1,2,4-triazol-3-amine]			≥ 80%	≥ 80%	≥ 80%	≥ 80%	≥ 80%	≥ 80%	≥ 80%	≥ 80%		≥ 80%	≥ 80%			≥ 80%
CCn1c(-n2ncnc2N)nc2cncc(-c3ccc(Cl)c(Cl)c3F)c21 [Compound 100, 2-[7-(3,4-dichloro-2-fluorophenyl)-1-ethylimidazo[4,5-c]pyridin-2-yl]-1,2,4-triazol-3-amine]			≥ 80%	≥ 80%	≥ 80%	≥ 80%	≥ 80%	≥ 80%	≥ 80%	≥ 80%		≥ 80%	≥ 80%			≥ 80%
CCCn1c(-n2ncnc2N)nc2cncc(-c3ccccc3Cl)c21 [Compound 172, 2-[7-(2-chlorophenyl)-1-propyl-imidazo[4,5-c]pyridin-2-yl]-1,2,4-triazol-3-amine]		≥ 80%	≥ 80%	≥ 80%	≥ 80%	≥ 80%	≥ 80%	≥ 80%	≥ 80%	≥ 80%	≥ 80%	≥ 80%	≥ 80%			
